pEC50, pIC50: −log10 of the molar value. Where two headings read alike, the source gives them in different places.
Experiments:
[1] = rat, in vivo
Method: (§1) DIO male rats are obtained from Charles River Laboratories, Inc. (Wilmington, MA). […] The animals typically achieve a mean body weight of about 500 g. Levin DIO rats are habituated to caging environment for 7 days. During the 3 nights of habituation, animals receive a single intraperitoneal (IP) injection of vehicle. […] Food intake is measured by an automated food intake measuring system (BioDAQ, Research Diets) at 5 sec intervals throughout the course of the study. Body weight is recorded nightly.
Values are given as percent inhibition of body weight. […] Body Weight: ∼2% difference is statistically significant. Food Intake: ∼20% difference is statistically significant.

[2] = assay type: in vivo, Sprague-Dawley rat (Levin DIO rats); conditions: for percent inhibition of body weight: rat DIO
Method: as §1
Body composition was measured prior to and after drug treatment using NMR (Echo Medical Systems, Houston, TX). For body composition measurements, rats are briefly placed (~1 min) in a well-ventilated plexiglass tube that was then inserted into a specialized rodent NMR machine. This enabled the calculation of changes in actual grams of fat and dry lean tissue (e.g., grams of body fat after treatment -grams of body fat at baseline = change in grams of body fat) and changes in % body composition for fat and dry lean tissue (e.g., % body fat after treatment -% body fat at baseline = change in % body fat). All data are represented as mean ± SEM. Analysis of variance (ANOVA) and post-hoc tests were used to test for group difference. […] Graphs and results are typically presented as vehicle-corrected changes in percent body weight, body fat and changes in body protein
Values are as provided as percent inhibition of body weight after infusion for the time periods indicated.

[3] = rat, in vivo; remark: listed apart in the source
Method: as §1
Values are given as percent inhibition of body weight.
Values are given as percent inhibition of body weight. […] Body Weight: ∼2% difference is statistically significant.

[4] = assay type: in vivo, NIH/Swiss mice; set-up: key to percent inhibition of food intake: "ns" means "not significant" compared to vehicle
Method: For studies of the effects of PPF polypeptides on longer-term (chronic) food intake and/or body composition, the amount of food consumed over a period of two weeks was measured. For these studies of the effects of PPF polypeptides on longer-term food intake and/or body composition, mice were housed singly for 1 week prior to the beginning of treatment. Throughout the experiments, food intake and body weight were monitored daily. […] At the end of each study, animals were sacrificed after a 2-4 hr fast by isoflurane overdose. Blood was collected into Na-heparin-flushed syringes by cardiac puncture, and plasma was immediately frozen. In some studies, body composition was determined using dual-energy X-ray absorptiometry (DEXA; PixiMus, GE Lunar). In some studies, body composition (such as the amounts of fat and protein) were measured pre- and post treatment using a rodent NMR machine (EchoMRI-700™), in which animals are placed in a restraining tube and placed in the NMR for 2 minutes, and the amount of fat and lean mass, in grams, is quantified.

GLP Receptor = assay type: biochemical
[5] = assay type: in vivo, C57BL/6 mice; conditions: mouse DIO
From the text: An exemplary assay can be one that involves utilization of a diet-induced obese (DIO) mouse model for metabolic disease. […] During the study, the mice can continue to eat their high-fat diet Water can be provided ad libitum throughout the study.
DIO mice can be implanted with subcutaneous (SC) intrascapular osmotic pumps to deliver either vehicle (50% dimethylsulfoxide (DMSO) in water) or a compound of the invention.
Body weights and food intake can be measured over regular intervals throughout the study periods. Respiratory quotient (RQ, defined as CO2 production ÷ O2 consumption) and metabolic rate can be determined using whole-animal indirect calorimetry (Oxymax, Columbus Instruments, Columbus, OH). The mice can be euthanized by isoflurane overdose, and an index of adiposity (bilateral epididymal fat pad weight) measured. Moreover, prior to determination of epididymal weight, body composition (lean mass, fat mass) for each mouse can be analyzed using a Dual Energy X-ray Absorptiometry (DEXA) instrument per manufacturer's instructions (Lunar Piximus, GE Imaging System).

calcitonin receptor = assay type: binding
[6] = Gastric emptying (acetaminophen passed); assay type: in vivo, Levin rats
From the text: Values are given as percent inhibition of gastric emptying and percent acetaminophen passed.

[7] = assay type: in vivo, Levin rats
From the text: Values are given as percent reduction of blood glucose level.

CGRP receptors = molecular target: T1, CGRP receptors (Homo sapiens, UniProt O60894+Q16602); assay type: binding
T1 construct: SK-N-MC and L6 cells expressing endogenous CGRP receptors; endogenous in cells; host or cells: SK-N-MC cell membranes

CT receptor = molecular target: T2, CT receptor (Rattus norvegicus, UniProt P32214); assay type: cell-based
T2 construct: host or cells: 'C1A' (not explained)
T2 sequence (P32214 25-479 isoform P32214-2 limits assumed): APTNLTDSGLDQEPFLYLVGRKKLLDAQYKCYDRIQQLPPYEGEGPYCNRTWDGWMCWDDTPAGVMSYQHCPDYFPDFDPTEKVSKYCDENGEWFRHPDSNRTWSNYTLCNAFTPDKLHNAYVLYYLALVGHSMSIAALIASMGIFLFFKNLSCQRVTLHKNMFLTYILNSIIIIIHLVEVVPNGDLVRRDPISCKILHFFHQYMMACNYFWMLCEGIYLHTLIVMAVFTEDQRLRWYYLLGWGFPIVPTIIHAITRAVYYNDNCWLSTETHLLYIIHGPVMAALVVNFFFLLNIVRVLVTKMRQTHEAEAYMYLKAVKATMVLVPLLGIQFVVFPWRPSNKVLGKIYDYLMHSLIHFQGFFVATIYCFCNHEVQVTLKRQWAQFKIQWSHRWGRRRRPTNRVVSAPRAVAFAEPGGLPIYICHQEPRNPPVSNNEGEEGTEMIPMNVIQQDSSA

[8] = infusions in normal men; cited from earlier work

T1 sequence (Q16602 23-461): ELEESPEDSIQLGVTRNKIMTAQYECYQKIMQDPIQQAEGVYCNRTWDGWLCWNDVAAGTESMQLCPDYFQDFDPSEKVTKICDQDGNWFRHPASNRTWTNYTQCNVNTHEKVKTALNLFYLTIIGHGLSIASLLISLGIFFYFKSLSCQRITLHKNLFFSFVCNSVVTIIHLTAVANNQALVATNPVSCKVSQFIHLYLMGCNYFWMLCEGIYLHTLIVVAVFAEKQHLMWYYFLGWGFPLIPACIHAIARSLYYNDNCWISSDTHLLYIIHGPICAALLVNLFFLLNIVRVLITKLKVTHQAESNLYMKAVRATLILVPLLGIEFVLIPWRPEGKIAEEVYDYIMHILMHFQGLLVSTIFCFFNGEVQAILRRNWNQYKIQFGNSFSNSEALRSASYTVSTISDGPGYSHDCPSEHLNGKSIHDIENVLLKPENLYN
T1 sequence (O60894 27-148 partner): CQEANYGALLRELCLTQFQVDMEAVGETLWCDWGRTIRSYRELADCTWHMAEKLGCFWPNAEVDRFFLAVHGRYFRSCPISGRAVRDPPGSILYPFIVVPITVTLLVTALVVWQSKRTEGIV

## Amylin
[1]
  FI Iinhib @ 8 hr: 0%
[2]; rat, in vivo
  1 Wk BW Loss: 6%
[3]
  1 Wk BW Loss: 0%

## CCK8
[4]; mouse, in vivo
  percent inhibition of food intake: ns

## DF(P-CH2SO3)MGWNMFGKR KCNTATCATQRLANELVRLQTYPRTNVGSNTY [SEQ ID NO: 398]
GLP Receptor; read-out: IC50 in a GLP Receptor cyclase (RIN) assay
  pIC50: 6.00

## KCNTATCATQRLANFLVRSSNNLGPVLPPTNVGSNTY [rat amylin]
[5]; infusion 30 nmol/kg/d, Day 2
  percent inhibition of body weight: 1.9%
[5]; infusion 30 nmol/kg/d, Day 7
  percent inhibition of body weight: 1.5%
[5]; infusion 30 nmol/kg/d, Day 14
  percent inhibition of body weight: 2.1%
[5]; infusion 30 nmol/kg/d, Day 21
  percent inhibition of body weight: 2.5%
[5]; infusion 30 nmol/kg/d, Day 28
  percent inhibition of body weight: 2.2%
[5]; infusion 75 nmol/kg/d, Day 2
  percent inhibition of body weight: 1.5%
[5]; infusion 75 nmol/kg/d, Day 7
  percent inhibition of body weight: 1.4%
[5]; infusion 75 nmol/kg/d, Day 14
  percent inhibition of body weight: 2.1%
[5]; infusion 100 nmol/kg/d, Day 2
  percent inhibition of body weight: 1.6%
[5]; infusion 100 nmol/kg/d, Day 7
  percent inhibition of body weight: 1.8%
[5]; infusion 100 nmol/kg/d, Day 14
  percent inhibition of body weight: 3.1%
[5]; infusion 100 nmol/kg/d, Day 21
  percent inhibition of body weight: 3.8%
[5]; infusion 100 nmol/kg/d, Day 28
  percent inhibition of body weight: 4.4%
[5]; infusion 100 nmol/kg/d, Day 35
  percent inhibition of body weight: 6.9%
[5]; infusion 100 nmol/kg/d, Day 42
  percent inhibition of body weight: 8.6%
[5]; infusion 100 nmol/kg/d, Day 49
  percent inhibition of body weight: 9.6%
[5]; infusion 100 nmol/kg/d, Day 63
  percent inhibition of body weight: 10.3%
[5]; infusion 100 nmol/kg/d, Day 70
  percent inhibition of body weight: 11.4%
[5]; infusion 100 nmol/kg/d, Day 77
  percent inhibition of body weight: 12%
[5]; infusion 100 nmol/kg/d, Day 84
  percent inhibition of body weight: 13.4%
[5]; infusion 300 nmol/kg/d, Day 2
  percent inhibition of body weight: 1.1%
[5]; infusion 300 nmol/kg/d, Day 7
  percent inhibition of body weight: -0.7%
[5]; infusion 300 nmol/kg/d, Day 14
  percent inhibition of body weight: -0.9%
[5]; infusion 300 nmol/kg/d, Day 21
  percent inhibition of body weight: -1.5%
[5]; infusion 300 nmol/kg/d, Day 28
  percent inhibition of body weight: -1.5%
[4]; 25 nmol/kg, 30 min
  percent inhibition of food intake: 46%
[4]; 25 nmol/kg, 60 min
  percent inhibition of food intake: 35%
[4]; 25 nmol/kg, 120 min
  percent inhibition of food intake: 21%
[4]; 25 nmol/kg, 180 min
  percent inhibition of food intake: 17%
[4]; 25 nmol/kg, 240 min
  percent inhibition of food intake: 7%
[4]; 250 nmol/kg, 30 min
  percent inhibition of food intake: 70%
[4]; 250 nmol/kg, 60 min
  percent inhibition of food intake: 53%
[4]; 250 nmol/kg, 120 min
  percent inhibition of food intake: 38%
[4]; 250 nmol/kg, 180 min
  percent inhibition of food intake: 30%
[4]; 300 nmol/kg, 30 min
  percent inhibition of food intake: 88%
[4]; 300 nmol/kg, 60 min
  percent inhibition of food intake: 90%
[4]; 300 nmol/kg, 120 min
  percent inhibition of food intake: 51%
[4]; 300 nmol/kg, 180 min
  percent inhibition of food intake: 21%
[4]; Mouse Food Intake, 60 min
  60 min ED50: 9 nmol/kg
GLP Receptor; read-out: Receptor Activation GLP-1/GIP/CT cyclase
  pEC50: 8.30
[2]; infusion 0.7 nmol/kg/d, Day 7
  percent inhibition of body weight: 1.6%
[2]; infusion 0.7 nmol/kg/d, Day 14
  percent inhibition of body weight: 1.3%
[2]; infusion 0.7 nmol/kg/d, Day 21
  percent inhibition of body weight: 1.6%
[2]; infusion 0.7 nmol/kg/d, Day 28
  percent inhibition of body weight: 2.1%
[2]; infusion 7 nmol/kg/d, Day 7
  percent inhibition of body weight: 5.7%
[2]; infusion 7 nmol/kg/d, Day 14
  percent inhibition of body weight: 7.3%
[2]; infusion 7 nmol/kg/d, Day 21
  percent inhibition of body weight: 7.9%
[2]; infusion 7 nmol/kg/d, Day 28
  percent inhibition of body weight: 8.3%
[2]; infusion 18.4 nmol/kg/d, Day 7
  percent inhibition of body weight: 5.9%
[2]; infusion 18.4 nmol/kg/d, Day 14
  percent inhibition of body weight: 7.5%
[2]; infusion 18.4 nmol/kg/d, Day 21
  percent inhibition of body weight: 6.7%
[2]; infusion 18.4 nmol/kg/d, Day 28
  percent inhibition of body weight: 6.5%
[2]; infusion 23 nmol/kg/d, Day 7
  percent inhibition of body weight: 7.8%
[2]; infusion 23 nmol/kg/d, Day 14
  percent inhibition of body weight: 9.4%
[2]; infusion 23 nmol/kg/d, Day 21
  percent inhibition of body weight: 8.8%
[2]; infusion 23 nmol/kg/d, Day 28
  percent inhibition of body weight: 8.8%
[2]; infusion 23 nmol/kg/d, Day 35
  percent inhibition of body weight: 9.5%
[2]; infusion 23 nmol/kg/d, Day 42
  percent inhibition of body weight: 10%
[2]; infusion 23 nmol/kg/d, Day 49
  percent inhibition of body weight: 9.8%
[2]; infusion 23 nmol/kg/d, Day 56
  percent inhibition of body weight: 9.1%
[2]; infusion 69 nmol/kg/d, Day 7
  percent inhibition of body weight: 7.6%
[2]; infusion 69 nmol/kg/d, Day 14
  percent inhibition of body weight: 9.3%
[2]; infusion 69 nmol/kg/d, Day 21
  percent inhibition of body weight: 11.1%
[2]; infusion 69 nmol/kg/d, Day 28
  percent inhibition of body weight: 12.2%
[2]; infusion 69 nmol/kg/d, Day 49
  percent inhibition of body weight: 15.4%
[2]; infusion 69 nmol/kg/d, Day 56
  percent inhibition of body weight: 15.7%
[2]; infusion 69 nmol/kg/d, Day 63
  percent inhibition of body weight: 16.2%
[2]; infusion 69 nmol/kg/d, Day 70
  percent inhibition of body weight: 15.8%
[2]; infusion 70 nmol/kg/d, Day 7
  percent inhibition of body weight: 7.6%
[2]; infusion 70 nmol/kg/d, Day 14
  percent inhibition of body weight: 8.9%
[2]; infusion 70 nmol/kg/d, Day 21
  percent inhibition of body weight: 10.2%
[2]; infusion 70 nmol/kg/d, Day 28
  percent inhibition of body weight: 11.8%
Calcitonin receptor; read-out: Receptor Binding CT
  pIC50: 8.52
[6]; 69 nmol/kg/d, 21 days on study
  %inhibition of gastric emptying: 45%
  %passed (acetaminophen): 55%
[6]; 100 µg/kg/d, 26 days on study
  %inhibition of gastric emptying: 24%
  %passed (acetaminophen): 76%
[7]; 23 nmol/kg/d, day 26
  %Reduction of blood glucose, OGTT, 30: 2.3%
  %Reduction of blood glucose, OGTT, 60: 19.2%
  %Reduction of blood glucose, OGTT, 120: 2.1%
  %Reduction of blood glucose, OGTT, Basal: 4%
[7]; 69 nmol/kg/d, day 14
  %Reduction of blood glucose, OGTT, 15: -0.2%
  %Reduction of blood glucose, OGTT, 30: 11%
  %Reduction of blood glucose, OGTT, 60: 5.9%
  %Reduction of blood glucose, OGTT, 120: 1.2%
  %Reduction of blood glucose, OGTT, Basal: 6%

## [Ser117, dLeu119]leptin(116-122)-Amylin(1-7)-[^11,18Arg]sCT(8-27)-Amylin(33-37) [Compound 16]
[4]; mouse, in vivo
  cumulative intake, % that of controls: 34-38%
Calcitonin receptor
  binding to the CT receptor (RBA = receptor binding assay): bound
CGRP receptors
  binding to the CGRP receptor (RBA = receptor binding assay): some binding
CT receptor
  activation of the CT receptor (C1A assay): able to activate

## brain natriuretic peptide [BNP]
[8]
  increase in sodium excretion: 2 fold
  reduction in plasma renin, angiotensin II and aldosterone secretion: 50%

Reference: patent EP2330125A2 (priority 2005, dated 2007)
